# Assay results taken from US8268823B2, “Medical use of triazine derivatives” (University of Greenwich, priority 2006, dated 2012).
# Read-outs that look alike come from different tables or passages of the source.
# Experiments:
# sodium channel [1] = assay: veratrine-evoked uptake of [14C]guanidine into rat forebrain synaptosomes ([14C]guanidine flux); type: biochemical
# Protocol: The screening strategy is designed to select compounds with appropriate sodium channel blocking activity and low side effect liability. To this end all compounds are processed through the primary sodium channel assay (veratrine-evoked uptake of [^14C]guanidine into rat forebrain synaptosomes) and IC50 values computed from generated concentration-effect curves.
# Synaptosomes (heavy and light mitochondrial fraction containing synaptosomes) were prepared by transferring the forebrain (of known wet weight) to a glass Potter vessel to which 9 volumes ice-cold 0.25M sucrose had been added and homogenising, using a teflon pestle, by 8 ‘up and down strokes’ of a Braun Potter S motor driven homogeniser set to 900 rpm. The resulting homogenate was centrifuged at 1036×g at 4° for 10 min and the supernatant collected. The remaining pellet was resuspended, as above, in fresh ice-cold 0.25M sucrose and the centrifugation step repeated. The supernatant fractions were pooled and centrifuged at 40,000×g (average) at 4° for 15 min and the resulting pellet resuspended in the appropriate assay buffer at a concentration of 20-25 mg wet weight per ml appropriate assay buffer.
# Both assays were carried out using 14 ml polypropylene test tubes to which a range of concentrations of the compounds under test were added.
# Compounds under test were pre-incubated for 10 min at 30° in incubation buffer (50 mM pH 7.4 HEPES (adjusted to pH 7.4 with Tris base), 130 mM choline chloride, 5.5 mM D-glucose, 0.8 mm MgSO4 and 5 mM KCl) containing 7.5 mg original wet weight of tissue and 100 μg veratrine HCl in a final volume of 0.5 ml. […] A further 2×5 ml of ice-cold wash buffer was added to each tube and the vacuum filtration step repeated. The GF/C glass fibre filters were transferred to minivials and 4 ml Picofluor^40 liquid scintillant added using a Brandel™ deposit/dispense system. Radioactivity was measured using a Beckman Liquid Scintillation Counter.
# (§1) Data are presented as mean±sem of number of experiments indicated in brackets.
# hERG potassium channel [2] = target: T1, hERG potassium channel (Homo sapiens, UniProt Q12809); assay: in vitro; settings: for selectivity ratio: hERG / [3H]BTX-B selectivity, ratio of extrapolated hERG IC50 to [3H]BTX-B IC50 (synaptosomes)
# hERG potassium channel [3] = target: T1, hERG potassium channel; assay: inhibition of binding of [3H]astemizole to cell membranes expressing hERG; settings: for selectivity ratio: human, cell membranes expressing hERG, probe [3H]astemizole
# sodium channel [4] = type: binding, rat
# [5] = target: T2, DiHydroFolate Reductase (DHFR) (Rattus norvegicus, UniProt Q920D2); assay: inhibition of binding of [3H]methotrexate to rat liver homogenate supernatant; settings: for IC50: rat liver supernatant
# T2 construct: from tissue; host or cells: rat liver homogenate supernatant (47,500 x g)
# T2 sequence (Q920D2 1-187): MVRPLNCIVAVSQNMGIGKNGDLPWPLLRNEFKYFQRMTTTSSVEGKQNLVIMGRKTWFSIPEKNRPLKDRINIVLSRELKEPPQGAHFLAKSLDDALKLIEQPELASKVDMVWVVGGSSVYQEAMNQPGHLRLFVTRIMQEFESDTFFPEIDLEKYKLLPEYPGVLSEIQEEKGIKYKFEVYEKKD
# Protocol: All steps were carried out at 4° (or on ice). Freshly dissected rat liver was dissected into 0.25M ice-cold Sucrose and subsequently homogenised (U-turrax) in 50 mM pH 6.0 phosphate buffer (10 ml/g tissue) containing 15 mM Dithiothreitol. The resulting homogenate was centrifuged @ 47,500×g for 20 min and supernatant (filtered through cotton wool to remove fatty lumps) stored @-80° before use (Rothenberg et al).
# The binding reaction was stopped by the addition of 50 μl of a charcoal suspension (consisting of charcoal, Bovine Serum Albumin and Dextran present in a weight ratio of 100:4:1 suspended in 50 mM pH 6.0 phosphate buffer. Samples were vortexed, allowed to stand for 2 minutes and charcoal was precipitated by microcentrifugation @ full speed for 5 min. Aliquots of clear supernatant were transferred to counting vials containing liquid scintillant for measurement of radioactivity using Liquid Scintillation Spectroscopy.
# Percentage inhibition values were calculated by comparison to this value.
# as §1
# [6] = Table 3, rat forebrain synaptosomes, read-out: [14C]guanidine flux Mean (IC50: μM)
# [7] = Table 5, read-out: [14C]guanidine flux IC50
# [8] = Table 4, tissue prep'n Synaptosomes, read-out: [3H]BTX-B binding Mean (IC50: μM)
# [9] = Table 5, Synaptosome data, read-out: [3H]BTX-B IC50
# [10] = read-out: [3H]methotrexate binding Inhibition (% @ assay conc'n), assay concentration 10 μM
# [11] = read-out: [3H]methotrexate binding Inhibition (% @ assay conc'n), assay concentration 99 μM
# T1 sequence (Q12809 whole entry): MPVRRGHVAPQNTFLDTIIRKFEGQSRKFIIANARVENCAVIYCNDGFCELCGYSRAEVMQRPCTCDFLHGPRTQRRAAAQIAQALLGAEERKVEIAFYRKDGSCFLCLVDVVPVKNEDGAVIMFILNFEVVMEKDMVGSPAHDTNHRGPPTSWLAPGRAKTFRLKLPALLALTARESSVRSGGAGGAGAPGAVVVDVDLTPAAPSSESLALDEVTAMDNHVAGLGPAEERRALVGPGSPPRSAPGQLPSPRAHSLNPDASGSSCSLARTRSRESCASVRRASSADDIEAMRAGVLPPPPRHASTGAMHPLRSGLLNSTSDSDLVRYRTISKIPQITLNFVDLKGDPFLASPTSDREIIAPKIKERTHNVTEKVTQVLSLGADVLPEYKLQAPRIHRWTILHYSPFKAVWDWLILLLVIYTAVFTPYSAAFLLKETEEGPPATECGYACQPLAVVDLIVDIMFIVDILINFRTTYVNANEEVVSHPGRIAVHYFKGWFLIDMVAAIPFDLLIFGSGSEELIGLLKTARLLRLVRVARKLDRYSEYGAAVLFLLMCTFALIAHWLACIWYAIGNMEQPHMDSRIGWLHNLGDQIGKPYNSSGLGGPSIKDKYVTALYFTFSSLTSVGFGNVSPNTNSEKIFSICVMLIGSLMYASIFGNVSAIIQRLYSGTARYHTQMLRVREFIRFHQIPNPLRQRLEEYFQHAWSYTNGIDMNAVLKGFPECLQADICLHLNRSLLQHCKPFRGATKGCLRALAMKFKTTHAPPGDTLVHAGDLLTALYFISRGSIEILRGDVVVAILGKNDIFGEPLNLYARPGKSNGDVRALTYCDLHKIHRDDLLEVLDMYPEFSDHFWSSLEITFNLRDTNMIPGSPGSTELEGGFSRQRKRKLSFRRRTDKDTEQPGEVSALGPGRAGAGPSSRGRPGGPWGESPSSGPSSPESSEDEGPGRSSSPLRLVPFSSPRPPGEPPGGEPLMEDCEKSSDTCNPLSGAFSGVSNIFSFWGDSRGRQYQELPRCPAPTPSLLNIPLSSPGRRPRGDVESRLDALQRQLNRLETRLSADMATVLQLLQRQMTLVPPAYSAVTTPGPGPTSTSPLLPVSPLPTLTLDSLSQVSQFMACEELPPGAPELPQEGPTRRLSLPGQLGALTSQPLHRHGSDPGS
Structure (SMILES),IC50 (sodium channel [1]; [6]),IC50 (sodium channel [1]; [7]),inhibition at 10 µM (hERG potassium channel [2]),IC50 (hERG potassium channel [3]),selectivity ratio (hERG potassium channel [3]),IC50 (sodium channel [4]; [8]),IC50 (sodium channel [4]; [9]),IC50 [5],selectivity ratio (hERG potassium channel [2]),"inhibition at 10 µM [5, 10]","inhibition at 99 µM [5, 11]",pIC50 (uptake of [14C]guanidine) (sodium channel [1]; Table 8),"IC50 (sodium channel [1]; Table 8, read-out: IC50 (μM) (uptake of [14C]guanidine))","Hill (uptake of [14C]guanidine) (sodium channel [1]; Table 8, slope)","IC50 (sodium channel [4]; Table 1, synaptosomes, mean ± sem (n), read-out: [3H]BTX-B binding (synaptosomes), mean IC50)","IC50 (sodium channel [4]; Table 4, tissue prep'n Homogenate, read-out: [3H]BTX-B binding Mean (IC50: μM))",[3H]methotrexate binding Inhibition (% @ assay conc'n) ([5]; assay concentration 10 μM),[3H]methotrexate binding Inhibition (% @ assay conc'n) ([5]; assay concentration 99 μM),"inhibition at 198 µM ([5]; read-out: [3H]methotrexate binding Inhibition (% @ assay conc'n), assay concentration 198 μM)"
"N=c1nc(N)c(-c2cccc(Cl)c2Cl)nn1Cc1cccc(C(F)(F)F)c1 [Example 24, 5(3)-Amino-6-(2,3-dichlorophenyl)-2,3(2,5)-dihydro-3(5)-imino-2-(3-trifluoromethyl)phenylmethyl-1,2,4-triazine]",4 µM,4 µM,94%,0.6 µM,0.2,–,–,–,–,–,–,–,–,–,–,–,–,–,–
"N=c1nc(N)c(-c2cccc(Cl)c2Cl)nn1Cc1ccoc1 [Example 30, 5(3)-Amino-6-(2,3-dichlorophenyl)-2,3(2,5)-dihydro-3(5)-imino-2-(3-furanylmethyl)-1,2,4-triazine]",4.4 µM,4.4 µM,65%,5.4 µM,1.2,2.6 µM,2.6 µM,> 250 µM,2.1,–,–,–,–,–,–,–,–,–,–
"N=c1nc(N)c(-c2cccc(Cl)c2Cl)nn1Cc1ccsc1 [Example 29, 5(3)-Amino-6-(2,3-dichlorophenyl)-2,3(2,5)-dihydro-3(5)-imino-2-(3-thienylmethyl)-1,2,4-triazine]",7.3 µM,7.3 µM,83%,2 µM,0.3,2.2 µM,2.2 µM,> 250 µM,0.9,–,–,–,–,–,–,–,–,–,–
"N=c1nc(N)c(-c2cccc(Cl)c2Cl)nn1Cc1ccccc1F [Example 14, 5(3)-Amino-6-(2,3-dichlorophenyl)-2,3(2,5)-dihydro-3(5)-imino-2-(2-fluoro)phenylmethyl-1,2,4-triazine]",2.8 µM,2.8 µM,80%,2.5 µM,0.9,–,–,–,–,-1%,-4%,–,–,–,–,–,–,–,–
"N=c1nc(N)c(-c2cccc(Cl)c2Cl)nn1CC1CCNCC1 [Example 38, 4-[5(3)-Amino-6-(2,3-dichlorophenyl)-2,3(2,5)-dihydro-3(5)-imino-1,2,4-triazin-2-ylmethyl]piperidine dimethanesulfonate or 5(3)-Amino-6-(2,3-dichlorophenyl)-2,3(2,5)-dihydro-3(5)-imino-2-(piperidin-4-yl)methyl-1,2,4-triazine]",20.9 µM,20.9 µM,80%,2.5 µM,0.1,–,–,> 300 µM,–,–,–,–,–,–,–,–,–,–,–
"Nc1nc(N)c(-c2cc(Cl)cc(Cl)c2Cl)c(CF)n1 [BW202W92, reference compound]",2 µM,–,–,–,–,4.5 µM,–,–,–,–,–,5.61 ± 0.04,2.5 µM,1.07,4.5 ± 0.4 µM,4.1 µM,−1%,29%,–
"COc1ccccc1Cn1nc(-c2cccc(Cl)c2Cl)c(N)nc1=N [Example 17, 5(3)-Amino-6-(2,3-dichlorophenyl)-2,3(2,5)-dihydro-3(5)-imino-2-(2-methoxy)phenylmethyl-1,2,4-triazine]",4.6 µM,4.6 µM,84%,1.9 µM,0.4,–,–,–,–,-4%,–,–,–,–,–,–,–,–,-3%
"N=c1nc(N)c(-c2cccc(Cl)c2Cl)nn1Cc1ccccc1C(F)(F)F [Example 23, 5(3)-Amino-6-(2,3-dichlorophenyl)-2,3(2,5)-dihydro-3(5)-imino-2-(2-trifluoromethyl)phenylmethyl-1,2,4-triazine]",4.4 µM,4.4 µM,90%,1.1 µM,0.3,–,–,–,–,–,–,–,–,–,–,–,–,–,–
"Cn1nc(-c2cccc(Cl)c2F)c(N)nc1=N [Example 36, 5(3)-Amino-6-(3-chloro-2-fluorophenyl)-2,3(2,5)-dihydro-3(5)-imino-2-methyl-1,2,4-triazine]",129 µM,129 µM,33%,20.3 µM,0.2,–,–,> 300 µM,–,–,–,–,–,–,–,–,–,–,–
"C=CCn1nc(-c2cccc(Cl)c2Cl)c(N)nc1=N [Example 10, 5(3)-Amino-6-(2,3-dichlorophenyl)-2,3(2,5)-dihydro-3(5)-imino-2-(prop-2-enyl)-1,2,4-triazine hemi-methanesulfonate]",6.1 µM,6.1 µM,50%,10 µM,1.6,–,–,–,–,-2%,-1%,–,–,–,–,–,–,–,–
"N=c1nc(N)c(-c2cccc(Cl)c2Cl)nn1Cc1cccc(F)c1F [Example 13, 5(3)-Amino-6-(2,3-dichlorophenyl)-2,3(2,5)-dihydro-3(5)-imino-2-(2,3-difluoro)phenylmethyl-1,2,4-triazine]",2.8 µM,2.8 µM,84%,1.9 µM,0.7,–,–,–,–,-3%,-4%,–,–,–,–,–,–,–,–
"N=c1nc(N)c(-c2cccc(Cl)c2Cl)nn1Cc1cccc(F)c1 [Example 15, 5(3)-Amino-6-(2,3-dichlorophenyl)-2,3(2,5)-dihydro-3(5)-imino-2-(3-fluoro)phenylmethyl-1,2,4-triazine]",3.9 µM,3.9 µM,83%,2 µM,0.5,–,–,–,–,-4%,-5%,–,–,–,–,–,–,–,–
"COc1cccc(Cn2nc(-c3cccc(Cl)c3Cl)c(N)nc2=N)c1 [Example 18, 5(3)-Amino-6-(2,3-dichlorophenyl)-2,3(2,5)-dihydro-3(5)-imino-2-(3-methoxy)phenylmethyl-1,2,4-triazine]",3.1 µM,3.1 µM,87%,1.5 µM,0.5,–,–,–,–,-4%,-5%,–,–,–,–,–,–,–,–
"N=c1nc(N)c(-c2cccc(Cl)c2Cl)nn1CCC(F)(F)F [Example 39, 5(3)-Amino-6-(2,3-dichlorophenyl)-2,3(2,5)-dihydro-3(5)-imino-2-(3,3,3-trifluoropropyl)-1,2,4-triazine]",3.9 µM,3.9 µM,40%,15 µM,3.8,1.6 µM,1.6 µM,> 300 µM,9.4,–,–,–,–,–,–,–,–,–,–
